The numbers were not newly measured in paper PMC10323144, “Garbage in, garbage out: how reliable training data improved a virtual screening approach against SARS-CoV-2 MPro” (Frontiers in Pharmacology, 2023), which cites them from elsewhere.

SMILES strings stand for the structures. Peptide text beside a SMILES is read from it.

This series deals with MPro. Particulars: compiled from peer-reviewed sources (287 compounds) ref the 18 original articles; cited from earlier work.
In the case of `Cn1nc(C(C)(C)C)cc1C(=O)NC(Cc1cccc(Cl)c1)C(=O)NCC#N` (stereo not drawn) [Cathepsin inhibitor 1], the “Class (MPro activity class)” value is on record as 0 (compounds with IC50 > 20 μM, percentage inhibition <80% at 20 µM or 50 μM, or percentage enzyme inhibition <50% at 10 µM were labelled as INACTIVE).

As to `O=c1cc(-c2ccccc2)oc2ccc(O)c(O)c12` [5,6-Dihydroxyflavone], the “Class (MPro activity class)” value is recorded as 0 (compounds with IC50 > 20 μM, percentage inhibition <80% at 20 µM or 50 μM, or percentage enzyme inhibition <50% at 10 µM were labelled as INACTIVE).

Regarding `COc1ccc(NC(=O)c2ccc(C(=N)N(C)C)cc2)c(C(=O)Nc2ccc(Cl)cn2)c1` [BETRIXABAN], the “Class (MPro activity class)” value is reported as 0 (compounds with IC50 > 20 μM, percentage inhibition <80% at 20 µM or 50 μM, or percentage enzyme inhibition <50% at 10 µM were labelled as INACTIVE).

For the compound `CC(C)(C)[C@@H]1NC(=O)O[C@@H]2CCC[C@H]2OC/C=C/C(F)(F)c2nc3ccccc3nc2O[C@@H]2C[C@@H](C(=O)N[C@]3(C(=O)NS(=O)(=O)C4(C)CC4)C[C@H]3C(F)F)N(C2)C1=O` [Glecaprevir], the “Class (MPro activity class)” value is 0 (compounds with IC50 > 20 μM, percentage inhibition <80% at 20 µM or 50 μM, or percentage enzyme inhibition <50% at 10 µM were labelled as INACTIVE).

With `CC1(C)CN(C(=O)c2ccc(-c3cccc4nc(NC(=O)C5CC5)nn34)cc2)C1` [SOLCITINIB], the “Class (MPro activity class)” value is 0 (compounds with IC50 > 20 μM, percentage inhibition <80% at 20 µM or 50 μM, or percentage enzyme inhibition <50% at 10 µM were labelled as INACTIVE).

`CSCCC(C=O)NC(=O)C(CC(C)C)NC(=O)C(CC(C)C)NC(C)=O` (stereo not drawn) [Calpain inhibitor II] (Ac-Leu-Leu-Met-aldehyde; configuration not given here): the “Class (MPro activity class)” value was 1 (Compounds with IC50 < 10 µM or with a percentage of enzyme inhibition >50% at 10 µM were labelled as ACTIVE).

With `O=C(/C=C/c1ccc(O)c(O)c1)O[C@@H]1C[C@](O)(C(=O)O)C[C@@H](O)[C@H]1O` [Chlorogenic acid], the “Class (MPro activity class)” value was 0 (compounds with IC50 > 20 μM, percentage inhibition <80% at 20 µM or 50 μM, or percentage enzyme inhibition <50% at 10 µM were labelled as INACTIVE).

Take `Cc1cc(Cl)cc(CC2CCN(C(=O)CCl)CC2)c1` [NIR-THE-0d6461ce-8]: the “Class (MPro activity class)” value was 1 (Compounds with IC50 < 10 µM or with a percentage of enzyme inhibition >50% at 10 µM were labelled as ACTIVE).

As for `CCC(=O)Nc1ccc(N(Cc2ccsc2)C(=O)Cn2nnc3ccccc32)cc1` [ALP-POS-c59291d4-2], the “Class (MPro activity class)” value is 1 (Compounds with IC50 < 10 µM or with a percentage of enzyme inhibition >50% at 10 µM were labelled as ACTIVE).

On to `Cc1cc(C)c(C)c(S(=O)(=O)N2CCN(C(=O)c3cc(=O)[nH]c4ccccc34)CC2)c1C` [MAT-POS-916a2c5a-3], for which the “Class (MPro activity class)” value is 1 (Compounds with IC50 < 10 µM or with a percentage of enzyme inhibition >50% at 10 µM were labelled as ACTIVE).

For `CC(=O)ON=C1C(=O)N(Cc2cc(Cl)ccc2Cl)c2ccc(Cl)cc21` [LDN-57444], the “Class (MPro activity class)” value is given as 0 (compounds with IC50 > 20 μM, percentage inhibition <80% at 20 µM or 50 μM, or percentage enzyme inhibition <50% at 10 µM were labelled as INACTIVE).

With `CCCc1ccc(OCC(=O)N(Cc2nc(-c3cccnc3)no2)C(C)C)cc1` [PI-1840], the “Class (MPro activity class)” value is 0 (compounds with IC50 > 20 μM, percentage inhibition <80% at 20 µM or 50 μM, or percentage enzyme inhibition <50% at 10 µM were labelled as INACTIVE).

As to `N=C(N)c1ccc2cc(OC(=O)c3ccc(N=C(N)N)cc3)ccc2c1` [Nafamostat], the “Class (MPro activity class)” value is reported as 0 (compounds with IC50 > 20 μM, percentage inhibition <80% at 20 µM or 50 μM, or percentage enzyme inhibition <50% at 10 µM were labelled as INACTIVE).

Consider `CN(C)C(=O)COC(=O)Cc1ccc(OC(=O)c2ccc(NC(=N)N)cc2)cc1` [Camostat], for which the “Class (MPro activity class)” value was 0 (compounds with IC50 > 20 μM, percentage inhibition <80% at 20 µM or 50 μM, or percentage enzyme inhibition <50% at 10 µM were labelled as INACTIVE).

As for `CCC[C@@]1(CCc2ccccc2)CC(O)=C([C@H](CC)c2cccc(NS(=O)(=O)c3ccc(C(F)(F)F)cn3)c2)C(=O)O1` [Tipranavir], the “Class (MPro activity class)” value is listed as 0 (compounds with IC50 > 20 μM, percentage inhibition <80% at 20 µM or 50 μM, or percentage enzyme inhibition <50% at 10 µM were labelled as INACTIVE).

Turning to `COc1cccc(Nc2c(C(N)=O)cnc3c(C)cc(S(=O)(=O)c4cccc(C(=O)N(C)C)c4)cc23)c1` [GSK-256066], the “Class (MPro activity class)” value is 0 (compounds with IC50 > 20 μM, percentage inhibition <80% at 20 µM or 50 μM, or percentage enzyme inhibition <50% at 10 µM were labelled as INACTIVE).

`O=C(Cc1cccc(Cl)c1)Nc1cccnc1` [EDG-MED0da5ad92-2]: the “Class (MPro activity class)” value is 0 (compounds with IC50 > 20 μM, percentage inhibition <80% at 20 µM or 50 μM, or percentage enzyme inhibition <50% at 10 µM were labelled as INACTIVE).

As to `N#CC[C@H](C1CCCC1)n1cc(-c2ncnc3[nH]ccc23)cn1` [Ruxolitinib], the “Class (MPro activity class)” value is on record as 0 (compounds with IC50 > 20 μM, percentage inhibition <80% at 20 µM or 50 μM, or percentage enzyme inhibition <50% at 10 µM were labelled as INACTIVE).

Take `O=C(CCl)Nc1nc2c(S(=O)(=O)NCCc3ccccc3)cccc2s1` [DUN-NEW-f8ce3686-23]: the “Class (MPro activity class)” value is on record as 1 (Compounds with IC50 < 10 µM or with a percentage of enzyme inhibition >50% at 10 µM were labelled as ACTIVE).

On to `N#Cc1ccccc1-c1cc(-c2cc(Cl)cc(OCc3ccccc3)c2)c(=O)n(-c2cccnc2)c1` [compound 7], for which the “Class (MPro activity class)” value is recorded as 1 (Compounds with IC50 < 10 µM or with a percentage of enzyme inhibition >50% at 10 µM were labelled as ACTIVE).

In the case of `Cc1cc(CCCOc2c(C)cc(-c3noc(C(F)(F)F)n3)cc2C)on1` [Pleconaril], the “Class (MPro activity class)” value was 0 (compounds with IC50 > 20 μM, percentage inhibition <80% at 20 µM or 50 μM, or percentage enzyme inhibition <50% at 10 µM were labelled as INACTIVE).

Regarding `O=C(NC(Cc1cc(=O)[nH]c2ccccc12)C(=O)O)c1ccc(Cl)cc1` (stereo not drawn) [REBAMIPIDE], the “Class (MPro activity class)” value is given as 0 (compounds with IC50 > 20 μM, percentage inhibition <80% at 20 µM or 50 μM, or percentage enzyme inhibition <50% at 10 µM were labelled as INACTIVE).

For the compound `O=C(CCl)N1CC2CC1CN2Cc1cccc(Cl)c1` (stereo not drawn) [DAN-LON-a5fc619e-8], the “Class (MPro activity class)” value is recorded as 1 (Compounds with IC50 < 10 µM or with a percentage of enzyme inhibition >50% at 10 µM were labelled as ACTIVE).

Consider `CC(C)CC(NC(=O)C1OC1C(=O)O)C(=O)NCCCCN=C(N)N` (stereo not drawn) [E-64], for which the “Class (MPro activity class)” value is given as 0 (compounds with IC50 > 20 μM, percentage inhibition <80% at 20 µM or 50 μM, or percentage enzyme inhibition <50% at 10 µM were labelled as INACTIVE).

Turning to `O=S(=O)(CC1CS1)c1ccc(Oc2ccccc2)cc1` (stereo not drawn) [SB-3CT], the “Class (MPro activity class)” value is listed as 0 (compounds with IC50 > 20 μM, percentage inhibition <80% at 20 µM or 50 μM, or percentage enzyme inhibition <50% at 10 µM were labelled as INACTIVE).

Regarding `CNC(=O)[C@H](Cc1ccccc1)NC(=O)[C@H](CC(C)C)[C@H](CSc1cccs1)C(=O)NO` [Batimastat], the “Class (MPro activity class)” value is recorded as 0 (compounds with IC50 > 20 μM, percentage inhibition <80% at 20 µM or 50 μM, or percentage enzyme inhibition <50% at 10 µM were labelled as INACTIVE).

Take `N#Cc1ccccc1-c1cc(-c2cc(Cl)cc(Cl)c2)c(=O)n(-c2cccnc2)c1` [compound 4]: the “Class (MPro activity class)” value is 1 (Compounds with IC50 < 10 µM or with a percentage of enzyme inhibition >50% at 10 µM were labelled as ACTIVE).
